Results published in ChEMBL document CHEMBL1201862, “PubChem BioAssay data set” (2004).
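Where inhibition never reached the appropriate level, the endpoint shown equals the highest concentration tested. Otherwise, values were interpolated linearly from a five-concentration, 48-hour dose response in 96-well plates. GI50: concentration for 50% inhibition of growth.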 Active and inactive are the calls of the source. Cut-off read from the data, not from the text of the source: active = GI50 up to about 1.1 µM and inactive = higher.

Legend:
Assay in all cases: DTP human tumour cell line panel, 48 h
[1] = system: NCI/ADR-RES
[2] = system: ACHN
[3] = system: SW-620
[4] = system: SF-268
[5] = system: SR
[6] = system: LOX IMVI
[7] = system: KM12
[8] = system: SF-295
[9] = system: K562
[10] = system: OVCAR-3
[11] = system: SK-OV-3
[12] = system: A549
[13] = system: UO-31
[14] = system: SNB-19
[15] = system: RXF 393
[16] = system: SNB-75
[17] = system: NCI-H522
[18] = system: OVCAR-8
[19] = system: HCC 2998
[20] = system: NCI-H460

Measured: GI50

O=[N+]([O-])c1ccc(-c2csc3nc(-c4ccccc4)nn23)cc1
inactive: [1] > 100 µM | [2] > 100 µM | [3] > 100 µM | [4] 82 µM | [5] > 100 µM | [6] > 100 µM | [7] > 100 µM | [8] 28.3 µM | [9] > 100 µM | [10] > 100 µM | [11] 61.9 µM | [12] > 100 µM | [13] > 100 µM | [14] > 100 µM | [15] 40.8 µM | [16] 94.6 µM | [17] > 100 µM | [18] 47.5 µM | [19] > 100 µM

O=[N+]([O-])c1ccc2c(c1)c1nn2CCCCOc2nn(c3ccc([N+](=O)[O-])cc23)CCCCO1
inactive: [1] > 100 µM | [2] > 100 µM | [20] > 100 µM | [4] > 100 µM | [5] > 100 µM | [6] > 100 µM | [8] > 100 µM | [9] > 100 µM | [10] > 100 µM | [11] > 100 µM | [13] > 100 µM | [14] > 100 µM | [15] > 100 µM | [16] > 100 µM | [17] > 100 µM | [18] > 100 µM | [19] > 100 µM

Cc1c(C)c2c(c(N)c1C#N)C(=O)N(NC(=O)c1ccccc1)C2=O
inactive: [1] > 100 µM | [2] > 100 µM | [3] > 100 µM | [20] > 100 µM | [4] > 100 µM | [5] > 100 µM | [6] > 100 µM | [7] > 100 µM | [8] > 100 µM | [9] > 100 µM | [10] > 100 µM | [12] > 100 µM | [13] 36.1 µM | [14] > 100 µM | [15] > 100 µM | [16] > 100 µM | [17] > 100 µM | [18] > 100 µM | [19] > 100 µM

CSc1ccc(-c2cc(-c3nc4ccccc4[nH]3)nc(N)c2C#N)cc1
inactive: [1] 31.3 µM | [2] 19.9 µM | [3] 31.3 µM | [20] 22 µM | [4] 17.3 µM | [5] 13.1 µM | [6] 18.2 µM | [7] 21 µM | [8] 21.9 µM | [9] 18.4 µM | [10] 16.5 µM | [11] 33 µM | [12] 23.1 µM | [14] 25.2 µM | [15] 2.58 µM | [16] 23.1 µM | [17] 16.1 µM | [18] 31.6 µM | [19] 17.1 µM

CC1(c2nc3cc(Cl)c(Cl)cc3[nH]2)CCC(C(=O)O)C(C)(C)O1 (stereo unspecified)
inactive: [1] > 100 µM | [2] > 100 µM | [3] > 100 µM | [4] > 100 µM | [5] > 100 µM | [6] > 100 µM | [7] > 100 µM | [8] > 100 µM | [9] > 100 µM | [10] > 100 µM | [11] > 100 µM | [12] > 100 µM | [13] 34.8 µM | [14] > 100 µM | [15] > 100 µM | [16] > 100 µM | [17] > 100 µM | [18] > 100 µM | [19] > 100 µM

O=C1/C(=C\c2cccc(Oc3ccccc3)c2)S(=O)(=O)C(c2ccccc2)N1c1ccccc1Cl (stereo unspecified)
inactive: [1] 29.4 µM | [2] 27.8 µM | [3] 30.2 µM | [20] 32.6 µM | [5] 17.9 µM | [6] 29.2 µM | [7] 27 µM | [8] 30.8 µM | [9] 14.5 µM | [10] 20.9 µM | [11] 34.2 µM | [12] 31.6 µM | [13] 19.7 µM | [14] 16.1 µM | [15] 29 µM | [16] 20 µM | [17] 18.4 µM | [18] 23.4 µM | [19] 49.3 µM

Cc1ccc(/N=N/C(=N\c2ccc(F)cc2)c2ccc(N(CCC#N)CCC#N)cc2)cc1
inactive: [1] > 100 µM | [2] > 100 µM | [3] > 100 µM | [20] 33.5 µM | [4] > 100 µM | [5] 74.3 µM | [7] 33.3 µM | [8] > 100 µM | [9] > 100 µM | [10] 86.3 µM | [11] > 100 µM | [12] 45.9 µM | [13] > 100 µM | [14] > 100 µM | [15] > 100 µM | [16] > 100 µM | [17] 19.2 µM | [18] 77.4 µM | [19] 46.9 µM
